According to patent US12409206B2, “Use of cyclosporine analogues for treating fibrosis” (Hepion Pharmaceuticals, Inc., priority 2020, dated 2025):

Columns and labels:
Format in all cases: cell-based
[1] = test system: human precision cut liver slices (PCLS); experiment: PCLS RNA-Seq, Nonstimulation Protocol: Non-stimulated+CRV vs Non-stimulated+Vehicle; details: for log2FoldChange: Non-stimulated+CRV vs Non-stimulated+Vehicle; for fold change in RNA: absence of TGFβ+PDGF-BB, universal in all donors
Method: PCLS were obtained from 5 human donors who underwent resection of liver cancer. Replicate slices were collected from healthy margins of the resections and cultured for 4 or 6 days depending on the experimental protocol. In the Nonstimulation Protocol slices were cultured for 6 days and treated for the entire period with DMSO vehicle or 5 μM CRV431. In the Stimulation Protocol slices were rested for 1 day and then administered the cytokines, TGFβ and PDGF-BB, for 3 days to stimulate inflammation and fibrosis. DMSO vehicle, CRV431 (1 and 5 μM), Alk5i (10 μM), obeticholic acid (5 μM), elafibranor (5 μM), resmetirom ([…]), and Aramchol (5 μM) were administered individually as drug treatments in the Stimulation Protocol concurrent with TGFβ+PDGF-BB. Culture medium treatments were replaced daily.
Four types of evaluations were conducted on the PCLS: (a) secretion of inflammation and fibrosis biomarkers into the culture medium, (b) histological staining and quantitation of Sirius red as a measure of tissue fibrosis, (c) gene expression of inflammation and fibrosis biomarkers by RT-PCR, and (d) RNA sequencing (RNA-Seq) of the complete transcriptome. Each of the four types of evaluation is described below: • (a) Biomarker secretion. Spent culture medium was collected daily from duplicate slices for each treatment. ELISAs were used to quantify secretion of monocyte chemoattractant protein (MCP-1), interleukin-6 (IL-6), tissue inhibitor of metalloproteinase-1 (TIMP1), hyaluronic acid, fibronectin, and collagen 1α1. For each donor the mean level of biomarker secretion in each treatment group was expressed as a percentage change relative to DMSO vehicle, the percentages averaged for all donors, and finally the mean daily percentage change calculated from all days of evaluation. Results are shown in FIG. 8A (secreted markers-% daily average change). • (b) Sirius red histological staining. […] Sirius red was quantified morphometrically in the histological sections as the percentage area with Sirius red staining in 10 sections from each treatment. In the Nonstimulation Protocol the quantity of Sirius red staining was expressed relative to the vehicle group. In the Stimulation Protocol the quantity of Sirius red staining was expressed relative to nonstimulated PCLS (0%) and TGFβ+PDGF-BB-stimulated+vehicle PCLS (100%). Results are shown in FIG. 8B (Sirius red staining for tissue fibrosis). • (c) Gene expression by RT-PCR. RNA was isolated from duplicate liver slices per treatment at the end of the experiments and evaluated by RT-PCR for 5 markers of inflammation and fibrosis: MCP-1, IL-6, TIMP1, αSMA, and collagen 1α1. β actin was used as a reference gene to calculate relative levels of each target gene RNA. […] Results are shown in FIG. 8C (gene expression by RT-PCR). • (d) Gene expression by RNA-Seq. RNA sequencing of the complete transcriptome (30 million reads per sample) was conducted on vehicle and 5 μM CRV431 treatment groups from 3 donors both from the Nonstimulation and Stimulation Protocols. Data were analyzed by bioinformatics software programs to identify genes that were differentially expressed between vehicle and CRV431 treatments.
For the evaluation done for (d), 12 samples corresponding to 3 different donor slides which underwent 4 different treatments were studied. the comparisons carried out in this analysis are: (1) TGFb/PDGF+CRV vs TGFb/PDGF+Vehicle (V), and (2) Non-stimulated+CRV vs Non-stimulated+Vehicle. […] Table 1. Samples for evaluation (d)
Quality Control check was performed in all samples. All samples had more than 30 million reads and a quality score average >35 for almost all the bases in the sequences. The duplication levels are expected as it is RNA sequencing, and different copies of the same RNA are expected to be present in the samples. All samples had good amount of reads and quality, therefore all samples passed the QC checked and were included in the analysis. […]

[2] = test system: Human LX-2 Hepatic Stellate Cells; experiment: Procollagen and fibronectin ELISA of spent medium, LX-2 culture; details: 24 hours, both in the absence or presence of 0.1 ng/ml TGFβ
Method: Human LX-2 Hepatic Stellate Cells (Millipore-Sigma, Cat. #SCC064) were cultured in 96-well plates. Treatments were applied in triplicate wells (applied 100 ul treatments per well) for 24 hours. Cells were near confluence at the start of treatments. […] Spent culture medium collected at the end of the treatments was assayed for procollagen and fibronectin by enzyme-linked immunosorbent assays (ELISA) (Procollagen ELISA antibody pair (ab216064) and fibronectin ELISA antibody pair (ab222262) from Abcam). Procollagen and fibronectin were not detected in medium not applied to cells. Procollagen and fibronectin levels in the medium are represented by means±SD (bars) from 3 replicate wells (open circles).

[3] = test system: human precision cut IPF lung slices; experiment: Secreted markers (ELISA) in precision cut IPF lung slices in culture; details: CRV431 applied at 5 μM; 4 daily treatment intervals; relative to DMSO vehicle
Method: This example describes a study conducted with precision cut lung slices. Precision cut slices from explanted lung tissue from a patient with biopsy-confirmed, idiopathic pulmonary fibrosis (IPF) were cultured for 6 days. Treatments were applied to 6 replicate slices per treatment on Day 2 of culture and replaced daily on Days 3, 4, and 5 of culture.
For generating the results of secreted marker (% daily average change) shown in FIG. 6A, spent medium (24-hr intervals) was collected on Days 3, 4, 5, and 6 to measure secretion by ELISA of six markers of inflammation and fibrosis: monocyte chemoattractant protein (MCP-1), interleukin-6 (IL-6), matrix metalloproteinase-7 (MMP-7), tissue inhibitor of metalloproteinase-1 (TIMP1), hyaluronic acid, and collagen 1α1. The mean level of secretion from 6 replicate slices for each drug treatment was expressed as a percentage change relative to DMSO vehicle treatment for each day of treatment, and then the mean percentage change from 4 daily treatment intervals was calculated.

`CC[C@@H]1NC(=O)[C@H]([C@H](O)[C@H](C)CCCCCCNC(C)=O)N(C)C(=O)[C@H](C(C)C)N(C)C(=O)[C@H](CC(C)C)N(C)C(=O)[C@H](CC(C)C)N(C)C(=O)[C@@H](C)NC(=O)[C@H](C)NC(=O)[C@H](CC(C)C)N(C)C(=O)[C@H](C(C)C)NC(=O)[C@H](CC(C)C)N(C)C(=O)[C@@H](C)N(C)C1=O` [CRV431] gave a log2FoldChange ([1]; gene ACOT9) of 0.543, a log2FoldChange ([1]; gene AP003119.3) of −0.67 and a log2FoldChange ([1]; gene AREG) of 1.034. For the same molecule, the log2FoldChange ([1]; gene CCDC149) was 0.76, the log2FoldChange ([1]; gene CDH11) was −0.915 and the log2FoldChange ([1]; gene CXCL12) was 0.623. The log2FoldChange ([1]; gene CYP24A1) was −1.499, the log2FoldChange ([1]; gene DDX60) was −0.739 and the “fold change in RNA” value ([1]; gene DKK1) was “+3.8 fold”. The log2FoldChange ([1]; gene DNAJB9) was 0.721, the “fold change in RNA” value ([1]; gene ESM1) was −2.2 fold and the log2FoldChange ([1]; gene GDPD5) was −0.606. For the same molecule, the log2FoldChange ([1]; gene GMPPA) was 0.768, the “fold change in RNA” value ([1]; gene IFI44L) was −4.8 fold and the log2FoldChange ([1]; gene KRT7) was 0.563. The log2FoldChange ([1]; gene MPEG1) was 0.584, the log2FoldChange ([1]; gene MS4A4A) was 0.735 and the log2FoldChange ([1]; gene NCOA3) was −1.438. The “fold change in RNA” value ([1]; gene NCOA3) was −2.7 fold, the log2FoldChange ([1]; gene NREP) was −0.638 and the log2FoldChange ([1]; gene NUCB2) was 0.851. The log2FoldChange ([1]; gene NUMA1) was −0.537, the log2FoldChange ([1]; gene PGM3) was 0.751 and the log2FoldChange ([1]; gene POU2F2) was 2.856. The log2FoldChange ([1]; gene SERPINB2) was 1.255, the log2FoldChange ([1]; gene SNHG3) was 0.665 and the log2FoldChange ([1]; gene SOWAHC) was −0.601. The log2FoldChange ([1]; gene SRGAP2B) was −0.729, the “fold change in RNA” value ([1]; gene mIR-194-2) was −7.9 fold and the “abundance of fibronectin in the medium” value [2] was “dose-dependently decreased”. The “abundance of procollagen in the medium” value [2] was “dose-dependently decreased” and the “mean daily secretion of all markers (MCP-1, IL-6, MMP-7, TIMP1, hyaluronic acid, collagen 1α1)” value [3] was “decreased”.
